Data as given in patent US8084647B2, “Two-photon probe for real-time monitoring of intracellular calcium ions, method for preparing the probe and method for real-time monitoring of intracellular calcium ions using the probe” (Korea University Industry and Academy Cooperation Foundation, priority 2007, dated 2011).
Like-named read-outs stand apart in the source and are kept apart here.

What was measured:
[1] = previously reported value, cited from earlier work
[2] = system: acute rat hypothalamic slice; experiment: Two-photon microscopy of acute rat hypothalamic slices; assay type: cell-based
Method: Slices were prepared from the hippocampi and the hypothalmic of 2-day-old rat (SD). Coronal slices were cut into 400 μm thick using a vibrating-blade microtome in artificial cerebrospinal fluid (ACSF; 138.6 mM NaCl, 3.5 mM KCl, 21 mM NaHCO3, 0.6 mM NaH2PO4, 9.9 mM D-glucose, 1 mM CaCl2, and 3 mM MgCl2). Slices were incubated with the compound (10 μM) of Formula 7 in ACSF bubbled with 95% O2 and 5% CO2 for 30 min at 37° C. Slices were then washed three times with ACSF and transferred to glass-bottomed dishes (MatTek) and observed in a spectral confocal multi photon microscope.

[3] = Two-photon action spectra / two-photon cross section; assay type: physicochemical
Method: Thus, TPM images for samples stained with the compound of Formula 4 would be much brighter than those stained with commercial probe. In addition, the two-photon fluorescence enhancement factor (TFEF) estimated from the two-photon titration curve was 44 (Table 2), a value that allowed detection of Ca^2+ by TPM.
The two-photon cross section (δ) was determined by using femto second (fs) fluorescence measurement technique (S. K. Lee, W. J. Yang, J. J. Choi, C. H. Kim, S.-J, Jeon, B. R. Cho, Org. Lett. 2005, 7, 323-326).

[4] = One-photon absorption and emission spectra, fluorescence quantum yield; assay type: physicochemical; settings: for Φ fluorescence quantum yield: ±10%
Method: The absorption spectra of the compound of Formula 7 were recorded on a Hewlett-Packard 8453 diode array spectrophotometer, and the fluorescence spectra of the compound were obtained with Amico-Bowman series 2 luminescence spectrometer with a 1 cm standard quartz cell. The fluorescence quantum yield of the compound was determined by using Coumarin 307 as the reference by the literature method (J. N. Demas, G. A. Crosby, J. Phys. Chem. 1971, 75, 991-1024.).

[5] = One-photon fluorescence titration with Ca2+ (Kd^OP, enhancement factor, Hill plot); assay type: binding; settings: presence of 39 μM Ca2+
Method: A series of calibration solutions containing various [Ca^2+] was prepared by mixing two solutions (solution A containing 10 mM K2EGTA and solution B containing 10 mM CaEGTA) in various ratios. Both solutions contained the compound (1 μM) of Formula 4, 100 mM KCl, 30 mM MOPS, and they were adjusted to pH 7.2.
Then, 203 μl of this solution was discarded and replaced by 203 μl of solution B (39 μM free Ca^2+), and the spectrum was recorded. This brings the CaEGTA concentration to 1.00 mM and the [Ca^2]free to about 0.017 μM with no change in the concentration of the probe or of the total EGTA. The [Ca^2+]free is calculated from the Kd of EGTA for Ca^2+ (150.5 nM) using Equation 2: […]
where F is the observed fluorescence intensity, Fmin is the minimum fluorescence intensity, and Fmax is the maximum fluorescence intensity. The Kd value that best fits the titration curve (FIG. 6) with Equation 5 was calculated by using the Excel program as reported (J. R. Long, R. S. Drago, J. Chem. Ed. 1982, 59, 1037; K. Hirose, J. Incl. Phenom. Macrocycl. Chem. 2001, 39, 193).
The dissociation constants (Kd^OP) were calculated from the fluorescence titration curves (FIG. 6), as reported (J. R. Long, R. S. Drago, J. Chem. Educ. 1982, 59, 1037-1039).

[6] = Effect of pH on the reactivity (FIG. 11); assay type: physicochemical; settings: biologically relevant pH range
Excerpt: FIG. 11 is a graph showing the effect of pH on the reactivity of the compound of Formula 4;

[7] = Two-photon excited fluorescence (TPEF) titration with Ca2+ (Kd^TP); assay type: binding; settings: estimated from the two-photon titration curve
Excerpt: In order to determine the Kd^TP for the two-photon process, the TPEF spectra were obtained with a DM IRE2 Microscope (Leica) excited by a mode-locked titanium-sapphire laser source (Coherent Chameleon, 90 MHz, 200 fs) set at wavelength 780 nm and output power 1230 mW, which corresponded to approximately 10 mW average power in the focal plane. The TPEF titration curves (FIG. 6) were obtained and fitted to Equation 3.

astrocytes = experiment: Two-photon microscopy of cultured astrocytes; assay type: cell-based, rat; settings: cultured astrocytes labeled with 2 μM probe
Method: Astrocytes were taken from cerebral cortices of 1-day-old rats (Sprague-Dawley; SD). Cerebral cortices were dissociated in Hank's balanced salt solution (HBSS; Gibco BRL, Gaithersburg, Md., USA) containing 3 U/ml papain (Worthington Biochemical Corporation, NJ, USA) and plated in 75 mm flasks. To prepare purified astrocytes culture, flasks were shaken for 6 h on a shaker at 37° C., and the floating cells that were displaced into the media were removed. Astrocytes were passaged with 5 min exposure to 0.25% trypsin and replated onto poly-D-lysin-coated glass coverslips at 50˜100 cells/mm^2 and were maintained in Dulbecco's modified Eagle's medium (DMEM; Gibco) supplemented with penicillin/streptomycin and 10% fetal bovine serum (FBS; Gibco) in a CO2 incubator at 37° C. After 7-15 days in vitro, astrocytes were washed three times with serum-free media, and then incubated with 2 μM of the compound of Formula 7 in serum-free media for 20 min at 37° C. The cells were washed three times with phosphate buffered saline (PBS; Gibco) and then imaged after further incubation in colorless serum-free media for 15 min.
The spontaneous increase in [Ca^2+]i also propagated between astrocytes, as indicated by the delayed activity in the neighboring astrocyte (FIGS. 15b and 15d).

[8] = Reactivity for various metal ions (FIG. 10)
Excerpt: FIG. 10 is a graph showing the reactivity of the compound of Formula 4 for various metal ions;

[9] = prolonged observation time in tissue
[10] = 30 mM MOPS, 100 mM KCl, 10 mM EGTA, pH 7.2, absence of free Ca2+
[11] = MOPS buffer pH 7.2, presence of 39 μM free Ca2+

Which results are given for Oregon Green 488 BAPTA-1 [OG1]?
FEF^OP fluorescence enhancement factor (F − Fmin)/Fmin, one-photon [1]: 14; FEF^OP fluorescence enhancement factor (F − Fmin)/Fmin, one-photon ([1]; listed as OG1 + Ca^2+): 14^[l]/nd

Which “imaging depth in live tissue” value ([2]; TPM) does the source give for `CC(=O)c1ccc2cc(N(C)CC(=O)Nc3ccc(N(CC(=O)O)CC(=O)O)c(OCCOc4ccccc4N(CC(=O)O)CC(=O)O)c3)ccc2c1` [Formula 4] here?
Its value is ~170 μm.

What about the photo-stability [2, 9] of the same molecule?
Its photo-stability is “high photo-stability”.

And the photo-toxicity [2, 9]?
The photo-toxicity was “low photo-toxicity”.

And the “Φδ / TPEF relative to OG1-Ca2+” value ([3]; Ca2+ complexes in buffer)?
The value was 5 fold.

What about the “Φδ two-photon action cross section” value ([3]; presence of 39 μM free Ca2+) of the same molecule?
Its value is 110 GM.

What about the “λmax^(2) of the two-photon excitation spectra” value ([3]; presence of 39 μM free Ca2+) of the same molecule?
The value was 780 nm.

What about the “δ peak two-photon cross section” value ([3]; presence of 39 μM free Ca2+, ±15%) of the same molecule?
Its value is 230 GM.

And the “λmax^(l) one-photon absorption” value [4, 10]?
The value was 365 nm.

And the “λmax^fl one-photon emission” value [4, 10]?
Its value is 498 nm.

And the “Φ fluorescence quantum yield” value [4, 10]?
Its value is 0.012.

What about the “λmax^(l) one-photon absorption” value [4, 11] of the same molecule?
Its value is 365 nm.

What about the “λmax^fl one-photon emission” value [4, 11] of the same molecule?
Its value is 498 nm.

What about the “Φ fluorescence quantum yield” value [4, 11] of the same molecule?
Its value is 0.49.

What about the “FEF^OP fluorescence enhancement factor (F − Fmin)/Fmin, one-photon” value [5] of the same molecule?
Its value is 40.

What about the “fluorescence enhancement factor relative to OG1” value [5] of the same molecule?
Its value is ~3 fold.

What about the pH sensitivity [6] of the same molecule?
The pH sensitivity was “pH-insensitive”.

And the “FEF^TP two-photon fluorescence enhancement factor” value [7]?
Its value is 44.

What about the “visualization of calcium waves by TPM” value (astrocytes) of the same molecule?
The value was “clearly capable of visualizing the intra- and intercellular calcium waves”.

What about the “response toward CO^2+” value [8] of the same molecule?
The value was “much weaker response”.

And the “response toward Cu^2+” value [8]?
The value was “no response”.

What about the “response toward Fe^2+” value [8] of the same molecule?
Its value is “much weaker response”.

What about the “response toward Mg^2+” value [8] of the same molecule?
Its value is “much weaker response”.

What about the “response toward Mn^2+” value [8] of the same molecule?
Its value is “modest response”.

And the “response toward Zn^2+” value [8]?
The value was “modest response”.
